Assay results from patent US12697403B2, “Small molecules for dual function positron emission tomography (PET) and cell suicide switches” (THE TRUSTEES OF THE UNIVERSITY OF PENNSYLVANIA, priority 2017, dated 2026).

What was measured:
iCasp9 modified T cells = settings: cited from earlier work
F36V-FKBP = F36V-FKBP (Homo sapiens, UniProt P62942, F37V); settings: cited from earlier work; for binding to mutant F36V-FKBP relative to the wild-type protein: F36V-FKBP versus wild-type FKBP
[1] = molecular target: T1, iCasp9 in CAR T cells directed against desmoglein-3 (Homo sapiens, UniProt P55211+P62942, F37V); assay: Caspase activation / killing of iCasp9 CAR T cells by AP20187; type: cell-based; settings: T cells transduced with CARs containing iCasp9; read-out: IC50 (fraction of dead cells)
T1 construct: expressed in transfected cells; host or cells: T cells
Source text: (§1) The iCasp9 system has been previously incorporated into CAR T cells directed against desmoglein-3 by others for studying pemphigus. T cells were transduced with two different CARs containing iCasp9 (iC9) and one CAR without iC9. The inducible caspase 9 was activated by treatment with varying concentrations of AP20187, a chemical inducer of dimerization which is an analog of AP1903 (FIG. 9). Of note is that the fraction of dead cells is less than 100% because not all of the cells were transduced. The IC50 of AP20187 is <0.1 nM. Nontransduced cells (NTD) and cells without iC9 were not killed by AP20187.

[2] = test system: iCasp9 in CAR T cells directed against desmoglein-3; assay: as above; type: cell-based; settings: nontransduced cells (NTD) and cells without iC9
Source text: as §1

[3] = molecular target: T2, MDA-MB231 cells transduced with DHFR-iCasp9 (Escherichia coli, UniProt P0ABQ4); settings: for activation of the DHFR-iCasp9 suicide gene: MDA-MB231 cells transduced with DHFR-15-iCasp9 or DHFR-18-iCasp9
T2 sequence (P0ABQ4 1-159): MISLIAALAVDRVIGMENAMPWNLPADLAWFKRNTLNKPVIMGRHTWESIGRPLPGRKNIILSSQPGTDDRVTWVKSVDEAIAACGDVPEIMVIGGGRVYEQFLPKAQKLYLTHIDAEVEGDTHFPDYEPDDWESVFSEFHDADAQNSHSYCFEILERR
T2 sequence (P55211 135-416 partner): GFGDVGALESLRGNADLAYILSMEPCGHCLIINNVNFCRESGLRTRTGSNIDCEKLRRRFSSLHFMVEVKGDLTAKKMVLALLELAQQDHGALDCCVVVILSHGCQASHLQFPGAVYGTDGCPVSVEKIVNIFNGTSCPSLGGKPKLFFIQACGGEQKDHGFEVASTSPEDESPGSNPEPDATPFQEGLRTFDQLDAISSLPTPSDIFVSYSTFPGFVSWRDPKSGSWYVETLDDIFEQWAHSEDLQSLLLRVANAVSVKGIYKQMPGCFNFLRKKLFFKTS
Method: (§2) Procedure for DHFR-iCasp9 Cell Kill Assay with Bis-TMP Compounds: • Cell culture • Cell lines (MDA-MB231-luc transduced with DHFR-icasp9 with different linker lengths) were cultured in DMEM (Gibco) with 10% fetal bovine serum (Sigma), 100 U/mL penicillin and 100 ug/mL streptomycin (Invitrogen). • Incubation is done at 37° C. with 5% CO2 • Cell assay • Cells were plated on 96 well black plate, 3×10^4 cells/well. • The next day, cells were treated with varying concentrations of Bis-TMP compounds (Bis-TMP-#). • Cells were incubated for 24 hours and luciferin was added (120 ug/mL), after which bioluminescence was measured using Perkin Elmer Enspire Multi-mode Plate reader. Luminescence Assay with HCT116-L106P-tsLuc Cells Following Treatment with Shield-1 Compounds: • Day 1: Plate 50,000 cells/50 uL/well on 96 well black plate. • Day 2: • Add compounds (FP-Shield-1, control Shield-1 in 50 uL volume). • Incubate for 24 h at 37° C. with CO2. • Day 3: Add luciferin and read immediately.

[4] = test system: LID system (F36V-FKBP with degron) fused to CAR in T cells; settings: preclinical studies; cited from earlier work
[5] = test system: luciferase fused to the FKBP12 L106P destabilizing domain (L106P-tsLuc); assay: Luminescence assay with HCT116-L106P-tsLuc cells; type: cell-based; settings: HCT116 cells expressing L106P-tsLuc, 3 nM to 10 uM
Method: as §2

For `CC[C@H](C(=O)N1CCCC[C@H]1C(=O)O[C@H](CCc1ccc(OC)c(OC)c1)c1cccc(OCC(=O)NCCNC(=O)COc2cccc([C@@H](CCc3ccc(OC)c(OC)c3)OC(=O)[C@@H]3CCCCN3C(=O)[C@@H](CC)c3cc(OC)c(OC)c(OC)c3)c2)c1)c1cc(OC)c(OC)c(OC)c1` [AP1903], the “adverse events in humans” value (iCasp9 modified T cells; given to humans) is given as “without any reported serious adverse events”, the “modified T cells eliminated” value (iCasp9 modified T cells; patients with GVHD, single dose, within 30 min after administration) is given as “more than 90%” and the graft-versus-host disease outcome (iCasp9 modified T cells; patients with GVHD, single dose) is given as “terminated without abrogating immune reconstitution”. The “binding to mutant F36V-FKBP relative to the wild-type protein” value (F36V-FKBP) was “greater than three orders of magnitude”.

For `CC[C@H](C(=O)N1CCCC[C@H]1C(=O)O[C@H](CCc1ccc(OC)c(OC)c1)c1cccc(OCC(=O)NCC(CNC(=O)COc2cccc([C@@H](CCc3ccc(OC)c(OC)c3)OC(=O)[C@@H]3CCCCN3C(=O)[C@@H](CC)c3cc(OC)c(OC)c(OC)c3)c2)CN(C)C)c1)c1cc(OC)c(OC)c(OC)c1` [AP20187], the IC50 [1] was < 0.1 nM and the “killing of control cells” value [2] was “not killed”.

For `COc1cc(Cc2cnc(N)nc2N)cc(OC)c1OCCCCC(=O)NCCCOCCCNC(=O)CCCCOc1c(OC)cc(Cc2cnc(N)nc2N)cc1OC` [Bis-TMP-21, N,N′-(oxybis(propane-3,1-diyl))bis(5-(4-((2,4-diaminopyrimidin-5-yl)methyl)-2,6-dimethoxyphenoxy)pentanamide)], the “activation of the DHFR-iCasp9 suicide gene” value [3] was “potent activation of the DHFR-iCasp9 suicide gene at low nM concentrations”.

In the case of `CC[C@H](C(=O)N1CCCC[C@H]1C(=O)O[C@H](CCc1ccc(OC)c(OC)c1)c1cccc(OCCN2CCOCC2)c1)c1cc(OC)c(OC)c(OC)c1` [Shield-1], the “binding to mutant F36V-FKBP relative to the wild-type protein” value (F36V-FKBP) is given as “greater than three orders of magnitude”, the IC50 (F36V-FKBP; read-out: IC50 for the mutant protein F36V-FKBP) is given as 3.3 nM and the “IC50 for control of CAR expression” value [4] is given as “in the nM range”. For the same compound, the “protein stabilization (luminescence)” value [5] was “equivalent protein stabilization when compared to the literature”.

With `COc1cc(Cc2cnc(N)nc2N)cc(OC)c1OCCCCC(=O)NCCCOCCOCCOCCCNC(=O)CCCCOc1c(OC)cc(Cc2cnc(N)nc2N)cc1OC` [Bis-TMP-27, N,N′-(((oxybis(ethane-2,1-diyl))bis(oxy))bis(propane-3,1-diyl))bis(5-(4-((2,4-diaminopyrimidin-5-yl)methyl)-2,6-dimethoxyphenoxy)pentanamide)] the “activation of the DHFR-iCasp9 suicide gene” value [3] was “potent activation of the DHFR-iCasp9 suicide gene at low nM concentrations”, the cells killed ([3]; MDA-MB231 cells transduced with DHFR-18-iCasp9, 24 hours) was ~ 70% and the IC50 ([3]; read-out: IC50 of cell killing, MDA-MB231 cells transduced with DHFR-18-iCasp9, 24 hours) was ~5 nM.
